How the values were obtained:
LAN cells = test: Measurement of acetylcholine release in differentiated LAN cells stimulated with 50 mM KCl; format: cell-based; settings: 1 hour treatment, 0.001, 0.005 and 0.01 mg/mL (Ac-SEQ ID NO: 8-NH2: 0.005 and 0.05 mg/mL)
Method: Said peptides were tested for their ability to modulate acetylcholine release in vitro. To that end, LAN cells were seeded on 48-well culture plates and allowed to reach the appropriate confluence under controlled conditions (37° C., 5% CO2) before inducing differentiation by replacing the culture media with Neurobasal® A media, supplemented with N-2 Supplement, GlutaMAX™, choline chloride and Leukemia Inhibition factor (GIBCO, Life technologies, MA, USA). Once the cells acquired its differentiated morphology, they were treated with the peptides mentioned above at the following concentrations for 1 hour: all peptides, except Ac-SEQ ID NO: 8-NH2, at 0.001 mg/mL, 0.005 mg/mL and 0.01 mg/mL; and peptide Ac-SEQ ID NO: 8-NH2 at 0.005 mg/mL and 0.05 mg/mL. Cells were then washed with HEPES, before stimulation of acetylcholine release by depolarization with external 50 mM KCl solution. Non-stimulated cells were incubated with non-depolarizing 4 mM KCl solution. After 30 minutes of incubation with the corresponding depolarizing or non-depolarizing KCl solution, cell supernatants were collected and used to measure acetylcholine levels with Amplex Red Acetylcholine Assay Kit (ThermoFisher Scientific, MA, USA). Cell pellets were used to determine protein content by BCA Protein Test Assay (Pierce BCA Protein Assay kit, ThermoFisher Scientific, MA, USA) (for data normalization purposes).
Percentage of acetylcholine release inhibition was calculated considering 100% release for the positive control (non-treated stimulated with KCl cells).

collagen type I = test: Collagen type I production by fibroblasts (competitive ELISA); format: cell-based, human; settings: vs non-treated cells
Method: The potential of said peptide Ac-SEQ ID NO: 8-NH2 to modulate the production of collagen type I as a potential improver of skin firming was evaluated in vitro using human skin fibroblasts.
Cell were seeded in 96-well plates at 1×10^4 cells/well and maintained for 24 h at standard culture conditions (37° C., 95% humidity, 5% CO2). After 24 h incubation, medium was removed and new medium containing the peptide Ac-SEQ ID NO: 8-NH2 at 0.01, 0.05 or 0.1 mg/mL was added to the wells concentration. Treatment lasted 24 hours or 48 hours and at the end of the assay cell culture media were collected. Cells treated only with culture medium were used as basal control (non-treated cells).
After 24 and 48 hours of treatment the amount of collagen type I produced and released by the cells (ex-novo collagen type I synthesis) was measured in cell culture medium by means of ELISA assay. The results of the test item were compared to basal control condition (non-treated cells). The treatments were performed in triplicate in three different experimental sessions.
The determination of collagen type I synthesis was carried out by means of a competitive ELISA method. Samples were added to enzyme wells which were pre-coated with antibodies, then the recognition antigen labeled with Horseradish peroxidase (HRP) was added; after being incubated 1 hour at 37° C., both compete with solid phase antigen and form immune complex. After washing with phosphate buffer solution, the combined HRP catalyzes Tetramethylbenzidine (TMB) into blue, and turns into yellow by the action of acid; it has an absorption peak under 450 nm wavelength and its absorbance is negatively correlated with antigen density of sample. The plates were read by microplate reader.
The quantitative determination uses a calibration curve made-up of known and growing concentrations of standard collagen type 1. The results are expressed as collagen type I concentration (μg/ml) in 50 μL cell culture medium.
Three trials were performed for each determination in three different experimental sessions. The % variation in collagen type I content between negative controls and samples was calculated and a direct index of the efficacy of the peptide to increase collagen I synthesis was obtained.

[1] = test system: human skeletal muscle cells; test: Calcium mobilization assay (Fluo-4 NW) after 60 mM KCl; format: cell-based; settings: 48 hours, vs untreated control
Method: The potential of said peptide Ac-SEQ ID NO: 8-NH2 to reduce calcium mobilization on human skeletal muscle cells was evaluated in vitro with Fluo-4 NW Calcium Assay Kit (ThermoFisher Scientific, MA USA). Briefly, human skeletal muscle myoblasts were seeded in quintuplicates in a black 96-well plate, clear bottom, at a density of 1×10^4 cells/well and maintained at standard culture conditions (37° C., 95% humidity, 5% CO2) for 48-72h. Myoblast differentiation to myocyte was then induced with specific differentiation medium (SKM-D medium+1% a/a) and monitored for 7 more days. Differentiated cells were treated with non-cytotoxic concentrations of peptide Ac-SEQ ID NO: 8-NH2 (0.01 mg/mL, 0.05 mg/mL and 0.1 mg/mL) for additional 48 hours.
Once incubation was finished, cell culture medium was replaced by 100 μl of Dye loading solution and the plate was kept on the incubator for 30 minutes. Dye solution was then replaced by assay buffer prior to calcium measurement using FLUOstar Omega instrument (BMG Labtech, Germany). For appropriate kinetic measurement, a pre-stimulus phase of 10 seconds was set to determine the baseline signal before induction of calcium influx by addition of 60 mM KCl. Post-stimulus phase was set at 90 seconds, with readings every 0.1 seconds at 494/516 nm (excitation/emission).
The following steps were performed for data analysis: 1) Calculation of a mean kinetic curve for each condition; 2) determination of maximum fluorescent signal for each curve after stimulation with KCl; 3) calculation of the fold change increase versus baseline; 4) normalization of results obtained for each condition (each peptide concentration) versus the one obtained for the control (untreated cells).

Question: “Ac-His-Ala-Leu-Arg-Phe-Trp-NH2 [Ac-SEQ ID NO: 8-NH2]” was tested. Which “Result: modulation of acetylcholine release” value (LAN cells) did it give?
Answer: Active in the modulation of

Question: What about the “increase of collagen type I production” value (collagen type I; 0.01 mg/mL, 24 h) of the same substance?
Answer: 9%

Question: What about the “increase of collagen type I production” value (collagen type I; 0.01 mg/mL, 48 h) of the same substance?
Answer: 16%

Question: What about the “increase of collagen type I production” value (collagen type I; 0.05 mg/mL, 24 h) of the same substance?
Answer: 31%

Question: What about the “increase of collagen type I production” value (collagen type I; 0.05 mg/mL, 48 h) of the same substance?
Answer: 29.5%

Question: What about the “increase of collagen type I production” value (collagen type I; 0.1 mg/mL, 24 h) of the same substance?
Answer: 37.5%

Question: What about the “increase of collagen type I production” value (collagen type I; 0.1 mg/mL, 48 h) of the same substance?
Answer: 56.5%

Question: What about the “reduction of calcium influx” value ([1]; 0.01 mg/mL) of the same substance?
Answer: −6%

Question: What about the “reduction of calcium influx” value ([1]; 0.05 mg/mL) of the same substance?
Answer: −20%

Question: And the “reduction of calcium influx” value ([1]; 0.1 mg/mL)?
Answer: −30%
